Patent publication US20250057764A1, “COMPOSITIONS, METHODS AND SYSTEMS FOR AEROSOL DRUG DELIVERY” (ASTRAZENECA AB, priority 2021, published 2025)
Structures can show the parent of a compound that is named as a salt. Where two headings read alike, the source gives them in different places.

What was measured:
[1] = cited from earlier work; for Latent Heat @ Boiling Point: at boiling point
[2] = Particle size distribution by laser diffraction; format: physicochemical
Description: When referred to herein, the term “optical diameter” indicates the size of a particle as measured by the Fraunhofer diffraction mode using a laser diffraction particle size analyzer equipped with a dry powder dispenser (e.g., Sympatec GmbH, Clasthal-Zellerfeld, Germany).
Suspending particles were manufactured by spray drying an emulsion of PFOB (perfluorooctyl bromide) and water stabilized by DSPC (1,2-Distearoyl-sn-Glycero-3-Phosphocholine). Detailed preparation procedures have been documented previously. The particle size distribution of the suspending particles was determined by laser diffraction.
Active agent particles formed of budesonide, 16,17-(butylidenebis(oxy))-11,21-dihydroxy-, (11-β,16-α)-pregna-1,4-diene-3,20-dione, were formed by micronizing budesonide using a jet mill. The particle size distribution of the budesonide (BD) was determined by laser diffraction.

[3] = Aerodynamic particle size distribution by NGI (FPF, FPD, MMAD) of HFC-152a co-suspension MDIs; format: physicochemical
Description: (§1) In the context of a composition containing or providing respirable aggregates, particles, drops, etc., such as compositions described herein, the term “fine particle dose” or “FPD” refers to the dose, either in total mass or fraction of the nominal dose or metered dose, that is within a respirable range. The dose that is within the respirable range in measured in vitro to be the sum of the dose delivered at stages 3 through Micro Orifice Collector in a Next Generation Impactor operated at a flow rate of 30 l/min.
(§2) In the context of a composition containing or providing respirable aggregates, particles, drops, etc., such as compositions described herein, the term “fine particle fraction” or “FPF” refers to the proportion of the delivered material relative to the delivered dose (i.e. the amount that exits the actuator of a delivery device, such as an MDI) that is within a respirable range. The amount of delivered material within the respirable range is measured in vitro as the sum of the material delivered at stages 3 through Micro Orifice Collector in a Next Generation Impactor operated at a flow rate of 30 l/min.
The mixture is agitated to facilitate powder wetting and then transferred to a pressure vessel where the suspension is mixed. Valves comprised of 50 uL metering chambers (BK357, Bespak, King's Lynn, UK) are crimped onto fluorinated ethylene polymer (FEP) coated aluminum cans (Presspart, Blackburn, UK) and the suspension is then pressure filled through the valve.
Metered dose inhalers containing a triple co-suspension composition comprising glycopyrrolate, budesonide, and formoterol active agent particles were prepared, with each type of active agent particle being provided as a micronized, crystalline API material.

[4] = Aerodynamic particle size distribution by NGI after storage of the MDI (stability); format: physicochemical; conditions: active in BGF-152a
Description: as §1, §2
The fine particle fraction (FPF) present in the delivered dose upon actuation of an MDI containing budesonide, formoterol, or glycopyrrolate active agent particles and phospholipid particles was measured following storage of the MDI under various temperature and relative humidity conditions for varied periods of time. […]

[5] = active in BGF-152a MDI, Example 2

## CC(F)F [HFC-152a, 1,1-Difluoroethane]
[1]
  Liquid Density @ 20° C.: 0.91 g/mL
  Liquid Viscosity @ 20° C.: 0.171 mPa · S
  Surface Tension @ 20° C.: 10.4 mN/m
  Vapor Pressure @ 20° C.: 510 kPa
  Latent Heat @ 25° C.: 279.1 kJ/kg
  Latent Heat @ Boiling Point: 318.4 kJ/kg
[1]; @25
  Water Solubility in Propellant: 2100@25 ppm

## FC(C(F)(F)F)C(F)(F)F [HFA-227ea, 1,1,1,2,3,3,3-Heptafluoropropane]
[1]
  Liquid Density @ 20° C.: 1.41 g/mL
  Liquid Viscosity @ 20° C.: 0.267 mPa · S
  Surface Tension @ 20° C.: 7.50 mN/m
  Vapor Pressure @ 20° C.: 390 kPa
  Latent Heat @ 25° C.: 110.97 kJ/kg
  Latent Heat @ Boiling Point: 131.4 kJ/kg
[1]; @25
  Water Solubility in Propellant: 610@25 ppm

## COc1ccc(CC(C)NCC(O)c2ccc(O)c(NC=O)c2)cc1.O=C(O)/C=C/C(=O)O (racemic) [FF, (±)-2-hydroxy-5-[(1RS)-1-hydroxy-2-[[(1RS)-2-(4-methoxyphenyl)-1-methylethyl]-amino]ethyl]formanilide fumarate]
[2]
  Optical diameter / size of 50% by volume of the particles (smaller than): smaller than 1.6 μm
  Optical diameter / size of 90% by volume of the particles (smaller than): smaller than 3.9 μm

## FC=CC(F)(F)F [HFO-1234ze]
[1]
  Liquid Density @ 20° C.: 1.18 g/mL
  Liquid Viscosity @ 20° C.: 0.206 mPa · S
  Surface Tension @ 20° C.: 8.9 mN/m
  Vapor Pressure @ 20° C.: 427 kPa
  Latent Heat @ 25° C.: 166.8 kJ/kg
  Latent Heat @ Boiling Point: 195.43 kJ/kg
[1]; @20
  Water Solubility in Propellant: 225@20 ppm

## C[N+]1(C)CCC(OC(=O)C(O)(c2ccccc2)C2CCCC2)C1.[Br-] (centres unmarked) [GP, Pyrrolidinium, 3-((cyclopentylhydroxyphenylacetyl)oxy)-1,1-dimethyl-, bromide]
[2]
  Optical diameter / size of 50% by volume of the particles (smaller than): smaller than 2.1 μm
  Optical diameter / size of 90% by volume of the particles (smaller than): smaller than 5 μm
[3]; [5]
  FPD, <6.4 μm (μg/act): 3.69 ± 0.36 μg/act
  FPF, <6.4 μm (%): 49 ± 3%
[3]; active in GFF-152a MDI
  FPD, <6.4 μm (μg/act): 3.56 ± 0.18 μg/act
  FPF, <6.4 μm (%): 48 ± 1%
  MMAD (μm): 3.43 ± 0.07 μm
[4]; 1 month 25° C./60% RH
  FPD, <6.4 μm (μg/act): 3.02 ± 0.08 μg/act
  FPF, <6.4 μm (%): 45 ± 1%
[4]; 1 month 40° C./75% RH
  FPD, <6.4 μm (μg/act): 3.18 ± 0.15 μg/act
  FPF, <6.4 μm (%): 46 ± 1%
[4]; 3 month 25° C./60% RH
  FPD, <6.4 μm (μg/act): 3.42 ± 0.08 μg/act
  FPF, <6.4 μm (%): 49 ± 1%
[4]; 3 month 40° C./75% RH
  FPD, <6.4 μm (μg/act): 3.62 ± 0.08 μg/act
  FPF, <6.4 μm (%): 50 ± 1%
[4]; 6 month 25° C./60% RH
  FPD, <6.4 μm (μg/act): 3.50 ± 0.07 μg/act
  FPF, <6.4 μm (%): 50 ± 1%
[4]; 6 month 40° C./75% RH
  FPD, <6.4 μm (μg/act): 3.44 ± 0.27 μg/act
  FPF, <6.4 μm (%): 49 ± 2%
[4]; 12 month 25° C./60% RH
  FPD, <6.4 μm (μg/act): 3.46 ± 0.05 μg/act
  FPF, <6.4 μm (%): 48 ± 2%
[4]; Initial
  FPD, <6.4 μm (μg/act): 3.18 ± 0.16 μg/act
  FPF, <6.4 μm (%): 47 ± 2%

## C=C(F)C(F)(F)F [HFO-1234yf, 2,3,3,3-Tetrafluoropropene]
[1]
  Liquid Density @ 20° C.: 1.11 g/mL
  Liquid Viscosity @ 20° C.: 0.164 mPa · S
  Surface Tension @ 20° C.: 6.8 mN/m
  Vapor Pressure @ 20° C.: 592 kPa
  Latent Heat @ 25° C.: 145.4 kJ/kg
  Latent Heat @ Boiling Point: 180.5 kJ/kg
[1]; @24
  Water Solubility in Propellant: 200@24 ppm

## FCC(F)(F)F [HFA-134a, 1,1,1,2-tetrafluoroethane]
[1]
  Liquid Density @ 20° C.: 1.23 g/mL
  Liquid Viscosity @ 20° C.: 0.211 mPa · S
  Surface Tension @ 20° C.: 8.09 mN/m
  Vapor Pressure @ 20° C.: 570 kPa
  Latent Heat @ 25° C.: 177.7 kJ/kg
  Latent Heat @ Boiling Point: 216.7 kJ/kg
[1]; @25
  Water Solubility in Propellant: 1100@25 ppm

## CC(C)(C)NCC(O)c1ccc(O)c(CO)c1 (stereo not drawn) [AB, α1 [(tert-butylamino)methyl]-4-hydroxy-m xylene-α,α′-diol sulfate]
[2]
  Optical diameter / size of 50% by volume of the particles (smaller than): smaller than 1.5 μm
  Optical diameter / size of 90% by volume of the particles (smaller than): smaller than 3.3 μm
[3]; active in BDA-152a MDI
  FPD, <6.4 μm (μg/act): 28.68 ± 0.61 μg/act
  FPF, <6.4 μm (%): 31 ± 1%
  MMAD (μm): 4.36 ± 0.06 μm
